Values joined by “and” are separate entries in the source; they are usually repeats but may differ in a detail not shown here. Equal values may be shown once.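 Following 48 hours of exposure in 96-well plates, responses at five concentrations were used to interpolate endpoints linearly. Abbreviation: GI50, concentration required for 50% inhibition of growth. Definition used: TGI = concentration required for complete inhibition of growth.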 Bounds are passed on as bounds.

GI50 and TGI data for 17 molecules are collected here from PubChem BioAssay (NCI).

One assay has as its system ACHN renal. Description: NCI-60 cell line screen, 48 h.
On to `COc1ccc(-c2nn(-c3cccc(Cl)c3)cc2C2CC(c3ccccc3)=NN2C(C)=O)cc1` (configuration not stated), for which the GI50 is 3.48 µM and the TGI stood at 20 µM.
The like results for `C[C@@H]1CC[C@H]2C(COCC3=C(C(F)(F)F)O[C@@H]4O[C@@]5(C)CC[C@H]6[C@H](C)CC[C@@H]3[C@@]46OO5)=C(C(F)(F)F)O[C@@H]3O[C@@]4(C)CC[C@@H]1[C@]32OO4` were, in that order, 0.028 µM and greater than 100 µM.
`CCn1c(-c2nonc2N)nc2c(C#CCN)ncc(OCCCN)c21`: the GI50 was greater than 25 µM and the TGI was greater than 25 µM.
Take `CN1CCN(Cc2ccc(C(=O)Nc3cncc(C#Cc4cnc(N)c5ccccc45)c3)cc2C(F)(F)F)CC1`: the GI50 was 1.52 µM and the TGI turned out to be 2.97 µM.
Regarding `N#CC(=C1SCS1)[N+](=O)[O-]`, the GI50 was 2.4 µM and the TGI was 13.2 µM.
As to `CNC(=O)c1ccccc1CC1(O)c2ccccc2Oc2ccccc21`, the GI50 was 26.2 µM and the TGI was greater than 100 µM.
In the case of `CCOc1ccc(S(=O)(=O)/N=C2\C=C(SCC(=O)O)C(=O)c3ccccc32)cc1`, the GI50 is 6.8 µM and the TGI came out at 20.2 µM.
For `COc1cc2c3c(cccc3c1)C(=O)N(CCN1CCCC1)C2=O`, the GI50 was 0.764 µM and the TGI is greater than 100 µM.
Regarding `CCc1c2c(nc3cc4c(cc13)OCO4)-c1cc3c(c(=O)n1C2)COC(=O)[C@]3(O)CC`, the GI50 is less than 0.001 µM; the TGI was 0.146 µM and 0.0376 µM.
`N/C(CC(=O)Nc1cc(C(F)(F)F)ccc1Cl)=N\O` came in with a TGI greater than 100 µM.
Regarding `COc1ccc(/C=C/C=C(/C#N)C(N)=S)cc1`, the GI50 is 24.6 µM and the TGI is 49.9 µM.
Consider `COc1ccc(-c2cc(-c3cc(Cl)ccc3Cl)nc3[nH]c(-c4cc(F)c(Cl)cc4Cl)cc(=O)c23)cc1`, for which the GI50 is 19.9 µM and the TGI is 69 µM.
The like results for `COc1ccc(C(=O)Nc2ncc(Cc3ccc(Cl)cc3)s2)cc1` were, in that order, 0.0603 µM and greater than 100 µM.
As for `COC(=O)C1OC(O[C@H]2CCC3(C)C(CCC4(C)C3CC=C3C5CC(C)(C)CCC5(C(=O)O)CC[C@]34C)C2(C)C)C(O)C(OC2OC(CO)C(O)C(O)C2O)C1O` (some centres not stated), the GI50 was 5.99 µM and the TGI turned out to be 10.7 µM.
The molecule `O=C1NC2(CCCC2)C(=O)C12CCCC2` gave a TGI greater than 100 µM.
`CCOC(=O)C1=C(C)Nc2ccccc2S1`: the TGI is greater than 100 µM.
As to `Nc1n[nH]c2ccc([C@@H]3Nc4ccc5[nH]ncc5c4[C@H]4[C@H]5CCC(C5)[C@H]43)cc12`, the GI50 was 0.895 µM and the TGI was greater than 72 µM.

In the next assay the test system is CCRF-CEM leukemia. The experiment in a line: NCI-60 cell line screen, 48 h.
As to `COc1ccc(-c2nn(-c3cccc(Cl)c3)cc2C2CC(c3ccccc3)=NN2C(C)=O)cc1` (configuration not stated), the GI50 was greater than 100 µM and the TGI was greater than 100 µM.
As for `C[C@@H]1CC[C@H]2C(COCC3=C(C(F)(F)F)O[C@@H]4O[C@@]5(C)CC[C@H]6[C@H](C)CC[C@@H]3[C@@]46OO5)=C(C(F)(F)F)O[C@@H]3O[C@@]4(C)CC[C@@H]1[C@]32OO4`, the GI50 is less than 0.0284 µM and the TGI was greater than 100 µM.
Regarding `CCn1c(-c2nonc2N)nc2c(C#CCN)ncc(OCCCN)c21`, the GI50 was greater than 25 µM and the TGI is greater than 25 µM.
`CN1CCN(Cc2ccc(C(=O)Nc3cncc(C#Cc4cnc(N)c5ccccc45)c3)cc2C(F)(F)F)CC1`: the GI50 was 2.91 µM and the TGI came out at 9.07 µM.
Consider `N#CC(=C1SCS1)[N+](=O)[O-]`, for which the GI50 was 0.376 µM and the TGI is 5.18 µM.
Regarding `CNC(=O)c1ccccc1CC1(O)c2ccccc2Oc2ccccc21`, the GI50 is 24.6 µM and the TGI is greater than 100 µM.
Take `COc1cc2c3c(cccc3c1)C(=O)N(CCN1CCCC1)C2=O`: the GI50 is 2.86 µM and the TGI was greater than 100 µM.
For `COc1ccc(-c2cc(-c3cc(Cl)ccc3Cl)nc3[nH]c(-c4cc(F)c(Cl)cc4Cl)cc(=O)c23)cc1`, the GI50 is 18.4 µM and the TGI stood at 55.1 µM.
Turning to `COc1ccc(C(=O)Nc2ncc(Cc3ccc(Cl)cc3)s2)cc1`, the GI50 was 0.046 µM and the TGI was greater than 100 µM.
For `COC(=O)C1OC(O[C@H]2CCC3(C)C(CCC4(C)C3CC=C3C5CC(C)(C)CCC5(C(=O)O)CC[C@]34C)C2(C)C)C(O)C(OC2OC(CO)C(O)C(O)C2O)C1O` (some centres not stated), in that order: 5.79 µM and 13.1 µM.
Regarding `O=C1NC2(CCCC2)C(=O)C12CCCC2`, the TGI is greater than 100 µM.
As for `CCOC(=O)C1=C(C)Nc2ccccc2S1`, the TGI was greater than 100 µM.
With `Nc1n[nH]c2ccc([C@@H]3Nc4ccc5[nH]ncc5c4[C@H]4[C@H]5CCC(C5)[C@H]43)cc12`, the GI50 is 0.383 µM and the TGI is greater than 100 µM.

The test system of another assay is HOP-62 NSCLC. Description: NCI-60 cell line screen, 48 h.
Turning to `COc1ccc(-c2nn(-c3cccc(Cl)c3)cc2C2CC(c3ccccc3)=NN2C(C)=O)cc1` (configuration not stated), the GI50 is 2.62 µM and the TGI turned out to be 6.4 µM.
As for `CCn1c(-c2nonc2N)nc2c(C#CCN)ncc(OCCCN)c21`, the GI50 was greater than 25 µM and the TGI was greater than 25 µM.
Consider `CN1CCN(Cc2ccc(C(=O)Nc3cncc(C#Cc4cnc(N)c5ccccc45)c3)cc2C(F)(F)F)CC1`, for which the GI50 is 2.19 µM and the TGI was 4.42 µM.
In the case of `N#CC(=C1SCS1)[N+](=O)[O-]`, the GI50 was 4.9 µM and the TGI is 21.1 µM.
For `CNC(=O)c1ccccc1CC1(O)c2ccccc2Oc2ccccc21`, in that order: 17.2 µM and 74.5 µM.
On to `CCOc1ccc(S(=O)(=O)/N=C2\C=C(SCC(=O)O)C(=O)c3ccccc32)cc1`, for which the GI50 was 20.7 µM and the TGI was determined as 44.8 µM.
As to `COc1cc2c3c(cccc3c1)C(=O)N(CCN1CCCC1)C2=O`, the GI50 is 2.1 µM and the TGI was 5.27 µM.
Regarding `CCc1c2c(nc3cc4c(cc13)OCO4)-c1cc3c(c(=O)n1C2)COC(=O)[C@]3(O)CC`, the TGI is greater than 100 µM.
`N/C(CC(=O)Nc1cc(C(F)(F)F)ccc1Cl)=N\O` gave a TGI greater than 100 µM.
As to `COc1ccc(/C=C/C=C(/C#N)C(N)=S)cc1`, the GI50 was 29.8 µM and the TGI was determined as 94.9 µM.
In the case of `COc1ccc(-c2cc(-c3cc(Cl)ccc3Cl)nc3[nH]c(-c4cc(F)c(Cl)cc4Cl)cc(=O)c23)cc1`, the GI50 was 5.52 µM and the TGI came to 32.2 µM.
`COc1ccc(C(=O)Nc2ncc(Cc3ccc(Cl)cc3)s2)cc1`: the GI50 was 0.0984 µM and the TGI was greater than 83.4 µM.
With `COC(=O)C1OC(O[C@H]2CCC3(C)C(CCC4(C)C3CC=C3C5CC(C)(C)CCC5(C(=O)O)CC[C@]34C)C2(C)C)C(O)C(OC2OC(CO)C(O)C(O)C2O)C1O` (some centres not stated), the GI50 was 6.21 µM and the TGI was found to be 11.6 µM.
The molecule `O=C1NC2(CCCC2)C(=O)C12CCCC2` yielded a TGI greater than 100 µM.
Take `CCOC(=O)C1=C(C)Nc2ccccc2S1`: the TGI is greater than 100 µM.
`Nc1n[nH]c2ccc([C@@H]3Nc4ccc5[nH]ncc5c4[C@H]4[C@H]5CCC(C5)[C@H]43)cc12`: the GI50 is 0.597 µM and the TGI was greater than 74 µM.

The next assay concerns HOP-92 NSCLC. Description: NCI-60 cell line screen, 48 h.
As to `CCn1c(-c2nonc2N)nc2c(C#CCN)ncc(OCCCN)c21`, the GI50 was 4.64 µM and the TGI was greater than 25 µM.
With `CN1CCN(Cc2ccc(C(=O)Nc3cncc(C#Cc4cnc(N)c5ccccc45)c3)cc2C(F)(F)F)CC1`, the GI50 is 2.42 µM and the TGI is 11.3 µM.
On to `N#CC(=C1SCS1)[N+](=O)[O-]`, for which the GI50 was 0.365 µM and the TGI came to 10.4 µM.
On to `CNC(=O)c1ccccc1CC1(O)c2ccccc2Oc2ccccc21`, for which the GI50 was 7.52 µM and the TGI worked out at 44.4 µM.
On to `CCOc1ccc(S(=O)(=O)/N=C2\C=C(SCC(=O)O)C(=O)c3ccccc32)cc1`, for which the GI50 was 2.61 µM and the TGI turned out to be 5.21 µM.
For `COc1cc2c3c(cccc3c1)C(=O)N(CCN1CCCC1)C2=O`, in that order: 1.55 µM and 4.98 µM.
For the molecule `CCc1c2c(nc3cc4c(cc13)OCO4)-c1cc3c(c(=O)n1C2)COC(=O)[C@]3(O)CC`, the GI50 is 0.019 µM and the TGI is greater than 100 µM.
`N/C(CC(=O)Nc1cc(C(F)(F)F)ccc1Cl)=N\O` yielded a TGI greater than 100 µM.
Consider `COc1ccc(-c2cc(-c3cc(Cl)ccc3Cl)nc3[nH]c(-c4cc(F)c(Cl)cc4Cl)cc(=O)c23)cc1`, for which the GI50 is 35.3 µM and the TGI is greater than 100 µM.
For the molecule `COc1ccc(C(=O)Nc2ncc(Cc3ccc(Cl)cc3)s2)cc1`, the GI50 is 3.71 µM and the TGI is greater than 100 µM.
As to `COC(=O)C1OC(O[C@H]2CCC3(C)C(CCC4(C)C3CC=C3C5CC(C)(C)CCC5(C(=O)O)CC[C@]34C)C2(C)C)C(O)C(OC2OC(CO)C(O)C(O)C2O)C1O` (some centres not stated), the GI50 is 7.12 µM and the TGI came out at 14.5 µM.
The molecule `O=C1NC2(CCCC2)C(=O)C12CCCC2` showed a TGI greater than 100 µM.
The molecule `CCOC(=O)C1=C(C)Nc2ccccc2S1` displayed a TGI greater than 100 µM.
With `Nc1n[nH]c2ccc([C@@H]3Nc4ccc5[nH]ncc5c4[C@H]4[C@H]5CCC(C5)[C@H]43)cc12`, the GI50 was 1.45 µM and the TGI stood at 14.9 µM.

A further assay deals with M14 melanoma. Description: NCI-60 cell line screen, 48 h.
`COc1ccc(-c2nn(-c3cccc(Cl)c3)cc2C2CC(c3ccccc3)=NN2C(C)=O)cc1` (configuration not stated): the GI50 is 7.68 µM and the TGI is greater than 100 µM.
`CCn1c(-c2nonc2N)nc2c(C#CCN)ncc(OCCCN)c21`: the GI50 was greater than 25 µM and the TGI is greater than 25 µM.
In the case of `CN1CCN(Cc2ccc(C(=O)Nc3cncc(C#Cc4cnc(N)c5ccccc45)c3)cc2C(F)(F)F)CC1`, the GI50 is 4.22 µM and the TGI is 14.8 µM.
For `CNC(=O)c1ccccc1CC1(O)c2ccccc2Oc2ccccc21`, the GI50 is 15.3 µM and the TGI came to 56.6 µM.
For `CCOc1ccc(S(=O)(=O)/N=C2\C=C(SCC(=O)O)C(=O)c3ccccc32)cc1`, in that order: 2.72 µM and 8.12 µM.
As to `COc1cc2c3c(cccc3c1)C(=O)N(CCN1CCCC1)C2=O`, the GI50 was 2.38 µM and the TGI came out at 5.66 µM.
Take `CCc1c2c(nc3cc4c(cc13)OCO4)-c1cc3c(c(=O)n1C2)COC(=O)[C@]3(O)CC`: the GI50 is less than 0.001 µM and the TGI was greater than 100 µM.
In turn, `N/C(CC(=O)Nc1cc(C(F)(F)F)ccc1Cl)=N\O` came in with a TGI greater than 100 µM.
As for `COc1ccc(/C=C/C=C(/C#N)C(N)=S)cc1`, the GI50 was 18.8 µM and the TGI was 42.7 µM.
Take `COc1ccc(-c2cc(-c3cc(Cl)ccc3Cl)nc3[nH]c(-c4cc(F)c(Cl)cc4Cl)cc(=O)c23)cc1`: the GI50 was 13.5 µM and the TGI is 35.8 µM.
As to `COc1ccc(C(=O)Nc2ncc(Cc3ccc(Cl)cc3)s2)cc1`, the GI50 is 0.0422 µM and the TGI is greater than 100 µM.
For `COC(=O)C1OC(O[C@H]2CCC3(C)C(CCC4(C)C3CC=C3C5CC(C)(C)CCC5(C(=O)O)CC[C@]34C)C2(C)C)C(O)C(OC2OC(CO)C(O)C(O)C2O)C1O` (some centres not stated), in that order: 6.22 µM and 11.5 µM.
`O=C1NC2(CCCC2)C(=O)C12CCCC2` had a TGI greater than 100 µM.
Molecule `CCOC(=O)C1=C(C)Nc2ccccc2S1` gave a TGI greater than 100 µM.
On to `Nc1n[nH]c2ccc([C@@H]3Nc4ccc5[nH]ncc5c4[C@H]4[C@H]5CCC(C5)[C@H]43)cc12`, for which the GI50 is 0.293 µM and the TGI is greater than 40.7 µM.

The test system of another assay is MALME-3M melanoma. Description: NCI-60 cell line screen, 48 h.
Regarding `COc1ccc(-c2nn(-c3cccc(Cl)c3)cc2C2CC(c3ccccc3)=NN2C(C)=O)cc1` (configuration not stated), the GI50 is 4.87 µM and the TGI is 35.2 µM.
